Source: patent US20230257350A1, “COMPOUNDS AND METHODS OF PROMOTING OLIGODENDROCYTE PRECURSOR DIFFERENTIATION” (The Cleveland Clinic Foundation, priority 2020, published 2023)
Each block holds one compound with its values, some of them ahead of it.

Legend:
[1] = system: oligodendrocyte progenitor cells (OPC); assay: 96-well OPC screening platform: oligodendrocyte generation from primary OPCs; format: cell-based, mouse; details: for EC50: Mus musculus, Oligodendrocyte progenitor cell
Protocol: 1) an optimized method to produce primary culture of highly pure mouse oligodendrocyte progenitor cells (OPC); and
2) an algorithm to identify and quantify oligodendrocytes in 96-well format.
(§1) Briefly, the high-throughput small molecule screen included a primary screening where small drug-like organic compounds ([…]) are added to cells seeded on a 96-well plate an incubated. The cells are then visually screened for oligodendrocyte precursor morphology changes. In a secondary screening, differentiation induced by selected compounds was further validated by fluorescence microscopy. Increased fluorescence in treated oligodendrocyte cells generated from a PIp-EGFP transgenic mouse was indicative of cell maturation. Further oligodendrocyte precursor maturation in response to selected compounds was assessed by induction of myelin protein expression as determined by immunocytochemistry and western blot.
Using the 96-well OPC-screening platform, a CNS-bias library of 20,000 drug-like small molecule compounds (Cambridge Co., San Diego, Calif.) was screened, using DMSO as a negative control and T3 (triiodothyronine) as a positive control. Initial screening was at 10 μM, and 390 primary hits were identified. Further testing confirmed that 57 compounds produced at least 50% response of T3.

OPCs (PLP-EGFP) = assay: Immunostaining of oligodendrocyte markers PLP and MBP in treated OPCs; format: cell-based, mouse; details: 4 days treatment
Protocol: as §1
Finally, similar activation of oligodendrocyte markers was observed when wild-type OPCs were treated with the “hit” compounds, eliminating the possibility that expression of the EGFP construct affected the results.

[2] = system: cuprizone mouse model of demyelination/remyelination; assay: Cuprizone/rapamycin demyelination and remyelination model; format: in vivo, mice; details: i.p. daily 6 weeks, 10 mg/kg, vs control
Source text: 2016; 283(Pt A): 330-340, which is incorporated herein by reference in its entirety. […] At the end of the treatment period, mice were perfused and different tissues analyzed for remyelination. In cortex and hippocampus, PLP antibody staining was used to assess remyelination. In corpus callosum, the number of myelinated axons in semi-thin (1 μm) Epon sections was quantified. […] This in vivo animal data further validates a strategy of using cell-based phenotypic screening to identify remyelination compounds.

[3] = Preliminary pharmacokinetic analysis, i.p. injection, LC/MS/MS of plasma and brain; format: in vivo; details: i.p. 10 mg/kg, mice
MTT assay (viability) = format: cell-based; details: up to 30 μM
Solubility = format: physicochemical

EC50 [1]: 40 nM
SMILES: CC1CCC(N2CCN(Cc3cccc(Br)c3)CC2)CC1 (centres unmarked) [CN007]

EC50 ([1]; Table 1, OPC differentiation): 165 nM
SMILES: CCc1cc(OCCOCCN2CCC(C)CC2)ccc1Cl [CN049]

EC50 ([1]; Table 2, OPC differentiation): 340 nM
SMILES: Fc1cc(Cl)ccc1OC[C@@H]1CCCN2CCCC[C@H]12 [CN566]

EC50 ([1]; Table 2, OPC differentiation): 270 nM
SMILES: Cc1cc(Cl)cc(C)c1OCCCCN1CCOCC1 [CN644]

EC50 ([1]; Table 1, OPC differentiation): 193 nM
SMILES: Cc1cc(Cl)ccc1OCCOCCN1CCC(C)CC1 [CN918]

More lines, now with the values behind:

SMILES: CC1CCN(CCOCCOc2c(Cl)cc(Cl)cc2Cl)CC1 [CN045]
co-labeling of EGFP+ cells by PLP and MBP antibodies (OPCs (PLP-EGFP)): All EGFP+ cells were co-labeled by PLP and MBP antibodies
remyelination in corpus callosum (number of myelinated axons) ([2]; p<0.01): significantly increased remyelination
remyelination in cortex (PLP antibody staining) ([2]; p<0.01): significantly increased remyelination
remyelination in hippocampus (PLP antibody staining) ([2]; p<0.05): significantly increased remyelination
Kp ([3]; C57BU6J, mouse, ip, brain homogenate vs. plasma, read-out: brain/plasma ratio): 0.8
time of peak concentration following injection [3]: ~2 h
viability (MTT assay (viability)): > 80%
EC50 ([1]; Table 1, OPC differentiation): 40 nM
increase in the percentage of oligodendrocytes compared with DMSO controls ([1]; dose-response, FIG. 3B): ~4 fold
efficacy compared with benztropine, clemastine or T3 ([1]; same OPC assay, multiple concentrations, FIG. 2): almost twice the efficacy
solubility (Solubility): > 500 µM

SMILES: Cc1cc(Cl)cc(Cl)c1OCCOCCN1CCN(C)CC1 [CN265]
EC50 ([1]; Table 1, OPC differentiation): 540 nM

SMILES: Cc1cc(Cl)cc(C)c1OCCCCN1CCC[C@H](C)C1 [CN329]
EC50 ([1]; Table 2, OPC differentiation): 42 nM

SMILES: Cc1cc(Cl)cc(C)c1OCCCCN1CCCCC1 [CN478]
EC50 ([1]; Table 2, OPC differentiation): 78 nM

SMILES: Cc1ccc(OCCOCCN2CCC(C)CC2)c(Cl)c1 [CN570]
EC50 ([1]; Table 1, OPC differentiation): 200 nM
